From US12660819B2, “Herbicidal derivatives” (SYNGENTA CROP PROTECTION AG, priority 2020, dated 2026)

How the values were obtained:
Assay type in all cases: in vivo
Solanum nigrum (SOLNI) [1] = experiment: Pre-emergence Test (glasshouse, percentage damage to the plant); conditions: 1000 g/ha unless otherwise stated, five-point scale
Lolium perenne (LOLPE) [2] = experiment: as above; conditions: 1000 g/ha unless otherwise stated, five-point scale
[3] = system: Amaranthus retoflexus (AMARE); experiment: Post-emergence Test (glasshouse, percentage damage to the plant); conditions: post-emergence spray, 1000 g/ha unless otherwise stated, evaluated after 13 days
Outline: (§1)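 Seeds are sown in standard soil under controlled glasshouse conditions. The pots are then sprayed at 1000 g/ha, unless otherwise stated, with compound in acetone/water (50:50) containing 0.5% Tween 20. After 13 days further growth, percentage plant damage is scored from 1 (0-20%) to 5 (81-100%).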

Lolium perenne (LOLPE) [4] = experiment: as above; conditions: post-emergence spray, 1000 g/ha unless otherwise stated, evaluated after 13 days
Outline: as §1

Setaria faberi (SETFA) [5] = experiment: as above; conditions: post-emergence spray, 1000 g/ha unless otherwise stated, evaluated after 13 days
Outline: (§2)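 Damage was rated 13 days after treatment and expressed on a five-point scale: 5=81-100%, 4=61-80%, 3=41-60%, 2=21-40%, 1=0-20%. Spray was applied at 1000 g/ha unless otherwise stated, from acetone/water (50:50) with 0.5% Tween 20, to sown pots.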

[6] = system: Ipomoea hederacea (IPOHE); experiment: as above; conditions: post-emergence spray, 1000 g/ha unless otherwise stated, evaluated after 13 days
Outline: as §2

Solanum nigrum (SOLNI) [7] = experiment: as above; conditions: post-emergence spray, 1000 g/ha unless otherwise stated, evaluated after 13 days
Outline: as §1

[8] = system: Echinochloa crus-galli (ECHCG); experiment: as above; conditions: post-emergence spray, 1000 g/ha unless otherwise stated, evaluated after 13 days
Outline: as §1

Setaria faberi (SETFA) [9] = experiment: Pre-emergence Test (glasshouse, percentage damage to the plant); conditions: 1000 g/ha unless otherwise stated, five-point scale
[10] = system: Amaranthus retoflexus (AMARE); experiment: as above; conditions: 1000 g/ha unless otherwise stated, five-point scale
[11] = system: Ipomoea hederacea (IPOHE); experiment: as above; conditions: 1000 g/ha unless otherwise stated, five-point scale
[12] = system: Echinochloa crus-galli (ECHCG); experiment: as above; conditions: 1000 g/ha unless otherwise stated, five-point scale

| SMILES | percentage damage to the plant, SOLNI (Solanum nigrum (SOLNI) [1]) | percentage damage to the plant, LOLPE (Lolium perenne (LOLPE) [2]) | Post-emergence Test AMARE, percentage damage to the plant (five-point scale) [3] | Post-emergence Test LOLPE, percentage damage to the plant (five-point scale) (Lolium perenne (LOLPE) [4]) | Post-emergence Test SETFA, percentage damage to the plant (five-point scale) (Setaria faberi (SETFA) [5]) | Post-emergence Test IPOHE, percentage damage to the plant (five-point scale) [6] | Post-emergence Test SOLNI, percentage damage to the plant (five-point scale) (Solanum nigrum (SOLNI) [7]) | Post-emergence Test ECHCG, percentage damage to the plant (five-point scale) [8] | percentage damage to the plant, SETFA (Setaria faberi (SETFA) [9]) | percentage damage to the plant, AMARE [10] | percentage damage to the plant, IPOHE [11] | percentage damage to the plant, ECHCG [12] |
| --- | --- | --- | --- | --- | --- | --- | --- | --- | --- | --- | --- | --- |
| CCn1c(C)c(-c2ccnc(F)c2)c(=O)c(C(=O)O)c1-c1ccc(Cl)c(Cl)c1 [Compound 17, 2-(3,4-dichlorophenyl)-1-ethyl-5-(2-fluoro-4-pyridyl)-6-methyl-4-oxo-pyridine-3-carboxylic acid] | 3 (3=41-60%) | 3 (3=41-60%) | 4 (4=61-80%) | 4 (4=61-80%) | 4 (4=61-80%) | 4 (4=61-80%) | 3 (3=41-60%) | 4 (4=61-80%) | 5 (5=81-100%) | 1 (1=0-20%) | 1 (1=0-20%) | 3 (3=41-60%) |
| CCn1c(C)c(-c2ccc(OC)cc2)c(=O)c(C(=O)O)c1-c1ccc(Cl)c(Cl)c1 [Compound 18, 2-(3,4-dichlorophenyl)-1-ethyl-5-(4-methoxyphenyl)-6-methyl-4-oxo-pyridine-3-carboxylic acid] | 2 (2=21-40%) | 1 (1=0-20%) | 5 (5=81-100%) | 2 (2=21-40%) | 5 (5=81-100%) | 5 (5=81-100%) | 5 (5=81-100%) | 4 (4=61-80%) | 4 (4=61-80%) | 1 (1=0-20%) | 1 (1=0-20%) | 2 (2=21-40%) |
| CCn1c(C)c(-c2cccnc2)c(=O)c(C(=O)O)c1-c1ccc(Cl)c(Cl)c1 [Compound 19, 2-(3,4-dichlorophenyl)-1-ethyl-6-methyl-4-oxo-5-(3-pyridyl)pyridine-3-carboxylic acid] | 1 (1=0-20%) | 1 (1=0-20%) | 4 (4=61-80%) | 3 (3=41-60%) | 4 (4=61-80%) | 4 (4=61-80%) | 5 (5=81-100%) | 5 (5=81-100%) | 1 (1=0-20%) | 1 (1=0-20%) | 1 (1=0-20%) | 1 (1=0-20%) |
| CCn1c(C)c(-c2cscc2C)c(=O)c(C(=O)O)c1-c1ccc(Cl)c(Cl)c1 [Compound 20, 2-(3,4-dichlorophenyl)-1-ethyl-6-methyl-5-(4-methyl-3-thienyl)-4-oxo-pyridine-3-carboxylic acid] | 2 (2=21-40%) | 3 (3=41-60%) | 4 (4=61-80%) | 2 (2=21-40%) | 4 (4=61-80%) | 2 (2=21-40%) | 3 (3=41-60%) | 3 (3=41-60%) | 4 (4=61-80%) | 1 (1=0-20%) | 1 (1=0-20%) | 2 (2=21-40%) |
| CCn1c(C)c(-c2ccc(F)c(Cl)c2)c(=O)c(C(=O)O)c1-c1ccc(Cl)c(Cl)c1 [Compound 22, 5-(3-chloro-4-fluoro-phenyl)-2-(3,4-dichlorophenyl)-1-ethyl-6-methyl-4-oxo-pyridine-3-carboxylic acid] | 2 (2=21-40%) | 2 (2=21-40%) | 5 (5=81-100%) | 2 (2=21-40%) | 4 (4=61-80%) | 3 (3=41-60%) | 4 (4=61-80%) | 2 (2=21-40%) | 3 (3=41-60%) | 2 (2=21-40%) | 1 (1=0-20%) | 1 (1=0-20%) |
